The text below walks through data of patent publication US10375956B2, “Herbicidally active 2-(substituted-phenyl)-cyclopentane-1,3-dione compounds and derivatives thereof” (Syngenta Limited, priority 2013, dated 2019).

Common to all, as to assay type: in vivo
Test [1] relates to Setaria faberi (SETFA). Briefly: Test 1 glasshouse assay, pre-emergence herbicidal activity. To be noted: 312 h, visual evaluation after 13 days, read-out: Percentage phytotoxicity SETFA. Summed up:
(§1)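 Steps: sow seeds in standard soil; after one day in the glasshouse, spray aqueous solution of technical compound (acetone/water 50:50, 0.5% Tween 20); grow on at 24/16° C with 14 h light and twice-daily watering; score phytotoxicity visually at 13 days.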

Test [2] has as its system Zea mays (ZEAMX, corn/maize). The test is described as above. To be noted: 312 h, visual evaluation after 13 days, read-out: Percentage phytotoxicity ZEAMX. A digest of the protocol:
as §1

The subject of test [3] is Abutilon theophrasti (ABUTH). Briefly: Test 1 glasshouse assay, post-emergence herbicidal activity. To be noted: 312 h, post-emergence (Example 1B Table 1), after 13 days, read-out: Percentage phytotoxicity ABUTH. Here is the method: (§2) Seeds of a variety of test species are sown in standard soil in pots. After cultivation for one day (pre-emergence) or after 8 days cultivation (post-emergence) under controlled conditions in a glasshouse (at 24/16° C., day/night; 14 hours light; 65% humidity), the plants are sprayed with an aqueous spray solution derived from the formulation of the “technical” (i.e. unformulated) active ingredient in acetone/water (50:50) solution containing 0.5% Tween 20 (polyoxyethylene sorbitan monolaurate, CAS Registry Number 9005-64-5). The test plants are then grown on under controlled conditions in a glasshouse (at 24/16° C., day/night; 14 hours light; 65% humidity) and watered twice daily. After 13 days for pre- or post-emergence, the test is evaluated visually, and an assessed percentage phytotoxicity score is given for each herbicidal application on each plant species (where 100%=total damage to plant; 0%=no damage to plant).
(§3) Test plants include the following: Abutilon theophrasti (ABUTH) and Amaranthus retroflexus (AMARE); these are all dicotyledonous (broadleaved) weeds. Setaria faberi (SETFA), Alopecurus myosuroides (ALOMY), and Echinochloa crus-galli (ECHCG); these are all grassy monocotyledonous weeds. Also: Zea mays (ZEAMX, corn/maize), which can be a grassy weed (“volunteer” corn) in some circumstances.

Test [4] concerns Amaranthus retroflexus (AMARE). The description is as above. To be noted: 312 h, post-emergence (Example 1B Table 1), after 13 days, read-out: Percentage phytotoxicity AMARE. Here is the method:
as §2, §3

For test [5], the system named is Setaria faberi (SETFA). The description is as above. To be noted: 312 h, post-emergence (Example 1B Table 1), after 13 days, read-out: Percentage phytotoxicity SETFA. Here is the method:
as §2, §3

In test [6] the test system is Zea mays (ZEAMX, corn/maize). The description is as above. To be noted: 312 h, post-emergence (Example 1B Table 1), after 13 days, read-out: Percentage phytotoxicity ZEAMX. The method, then:
as §2, §3

Each structure is given as a SMILES string.

Regarding `C#CCC1CC(=O)C(c2cc(-c3ncc(Cl)cn3)ccc2C)C1=O` (stereo not shown) [Compound A19], the pest or weed control at 250 g/ha in the test on Setaria faberi (SETFA) [1] is 60%; in test [2], 0%; in test [3], 30%; in test [4] it was 20%; in the test on Setaria faberi (SETFA) [5], 90%; in test [6], 30%. Moreover, the pest or weed control at 30 g/ha stood at 0% in test [3], 0% in test [4], 70% with Setaria faberi (SETFA) [5] and 40% in test [6].
Consider `C#CCC1CC(=O)C(c2c(C)cc(-c3ncc(Cl)cc3F)cc2C)C1=O` (stereo not shown) [Compound A3], for which the pest or weed control at 250 g/ha with Setaria faberi (SETFA) [1] was 100%; in test [2], 100%; in test [3], 90%; in test [4], 90%; in the test with Setaria faberi (SETFA) [5], 100%; in test [6], 100%. Besides, the pest or weed control at 62.5 g/ha was 80% in test [3] (62.5 g/ha), 60% in test [4], 100% with Setaria faberi (SETFA) [5] and 100% in test [6] (62.5 g/ha).
For the compound `C#CCC1CC(OC(C)=O)=C(c2c(C)cc(-c3ccc(F)cc3)cc2C)C1=O` (stereo not shown) [Compound A45], the values for the pest or weed control at 250 g/ha (in the test on Setaria faberi (SETFA) [1]; in test [4]; in the test on Setaria faberi (SETFA) [5]) were 60%, 80% and 100%, respectively. The pest or weed control at 62.5 g/ha in test [4] was determined as 20%; in the test on Setaria faberi (SETFA) [5] it was 90%.
As to `C#CCC1CC(=O)C(c2c(F)cc(-c3ccc(F)c(F)c3)cc2OC)C1=O` (stereo not shown) [Compound A22], the pest or weed control at 250 g/ha in the test with Setaria faberi (SETFA) [1] was 90%; in test [2], 100%; in test [3] it was 40%; in test [4] it was 80%; in the test on Setaria faberi (SETFA) [5], 100%; in test [6], 100%. Moreover, the pest or weed control at 30 g/ha in test [3] was 0%; in test [4] it was 10%; with Setaria faberi (SETFA) [5] it was 90%; in test [6] it was 100%.
For the compound `C#CCC1CC(=O)C(c2c(Cl)cc(-c3ccc(Cl)cn3)cc2OC)C1=O` (stereo not shown) [Compound A10], the pest or weed control at 250 g/ha in the test with Setaria faberi (SETFA) [1] stood at 100%; in test [2] it was 100%; in test [3], 80%; in test [4], 80%; in the test on Setaria faberi (SETFA) [5], 100%; in test [6], 100%. Further, the pest or weed control at 30 g/ha is 80% in test [3], 80% in test [4], 100% in the test on Setaria faberi (SETFA) [5] and 100% in test [6].
`C#CCC1CC(=O)C(c2cc(-c3ncc(Cl)cc3F)ccc2C)C1=O` (stereo not shown) [Compound A18]: the pest or weed control at 250 g/ha in the test with Setaria faberi (SETFA) [1] came to 70%; in test [2] it was 30%; in test [3], 60%; in test [4], 60%; with Setaria faberi (SETFA) [5], 80%; in test [6], 80%. Also, the pest or weed control at 30 g/ha in test [3] is 0%; in test [4] it was 0%; in the test on Setaria faberi (SETFA) [5] it was 60%; in test [6], 60%.
Regarding `C#CCC1CC(=O)C(c2c(Cl)cc(-c3ccc(F)c(F)c3)cc2OC)C1=O` (stereo not shown) [Compound A13], the pest or weed control at 250 g/ha in the test on Setaria faberi (SETFA) [1] was 100%; in test [2], 100%; in test [3], 80%; in test [4], 90%; with Setaria faberi (SETFA) [5] it was 100%; in test [6] it was 100%. Moreover, the pest or weed control at 30 g/ha in test [3] was found to be 70%; in test [4] it was 60%; in the test with Setaria faberi (SETFA) [5] it was 100%; in test [6], 100%.
With `C#CCC1CC(=O)C(c2c(C)cc(-c3ccc(F)cc3)cc2C)C1=O` (stereo not shown) [Compound A1, 2-[4-(4-fluorophenyl)-2,6-dimethyl-phenyl]-4-prop-2-ynylcyclopentane-1,3-dione], the figures for the pest or weed control at 250 g/ha (with Setaria faberi (SETFA) [1]; in test [4]; in the test with Setaria faberi (SETFA) [5]) were 90%, 70% and 100%, respectively. Also, the pest or weed control at 62.5 g/ha in test [4] amounted to 30%; in the test on Setaria faberi (SETFA) [5] it was 90%.
`C#CCC1CC(=O)C(c2cc(-c3ccc(Cl)cc3Cl)ccc2C)C1=O` (stereo not shown) [Compound A15]: the pest or weed control at 250 g/ha turned out to be 60% in test [3], 40% in test [4], 70% with Setaria faberi (SETFA) [5] and 80% in test [6].
Take `C#CCC1CC(=O)C(c2c(F)cc(-c3ccc(Cl)cn3)cc2Cl)C1=O` (stereo not shown) [Compound A8]: the pest or weed control at 250 g/ha in the test on Setaria faberi (SETFA) [1] came to 100%; in test [2], 90%; in test [3], 80%; in test [4], 90%; with Setaria faberi (SETFA) [5], 100%; in test [6] it was 100%. Besides, the pest or weed control at 30 g/ha came out at 70% in test [3], 80% in test [4], 100% in the test on Setaria faberi (SETFA) [5] and 100% in test [6].
Regarding `C#CCC1CC(=O)C(c2c(F)cc(-c3ccc(Cl)cc3)cc2Cl)C1=O` (stereo not shown) [Compound A6, 2-[2-chloro-4-(4-chlorophenyl)-6-fluorophenyl]-4-prop-2-ynylcyclopentane-1,3-dione], the pest or weed control at 250 g/ha in the test on Setaria faberi (SETFA) [1] came to 100%; in test [2] it was 90%; in test [3] it was 70%; in test [4], 70%; with Setaria faberi (SETFA) [5], 100%; in test [6], 100%. The pest or weed control at 30 g/ha in test [3] is 40%; in test [4], 60%; with Setaria faberi (SETFA) [5], 100%; in test [6], 100%.
